In ChEMBL document CHEMBL4387711, “Discovery of niclosamide and its O-alkylamino-tethered derivatives as potent antibacterial agents against carbapenemase-producing and/or colistin resistant Enterobacteriaceae isolates” (2019):
In brackets after ≈: the same amount, converted by molar mass. Activity calls are given as the source filed them. No cut-off for these calls is given here.

Tests used:
Klebsiella pneumoniae [1] = assay: Antibacterial activity against colistin-susceptible NDM-1/carbapenemase-producing Klebsiella pneumoniae by broth microdilution method; format: functional
Klebsiella pneumoniae [2] = assay: Antibacterial activity against colistin-resistant OXA-48/CTX-M-15/carbapenemase-producing Klebsiella pneumoniae 29 assessed as inhibition of growth at 50 uM after 18 hrs; format: functional, organism-based
Enterobacter cloacae [3] = assay: Antibacterial activity against colistin-resistant Enterobacter cloacae 280 by broth microdilution method; format: functional
Klebsiella pneumoniae [4] = assay: Bactericidal activity against OXA-48/CTX-M-15/carbapenemase-producing Klebsiella pneumoniae 28 assessed as reduction in bacterial count at MIC measured from 4 to 8 hrs in presence of colistin by time kill assay; format: functional, organism-based
Klebsiella pneumoniae [5] = assay: Synergistic antibacterial activity against colistin-susceptible NDM-1/carbapenemase-producing Klebsiella pneumoniae in presence of colistin by checkerboard assay; format: functional
Klebsiella pneumoniae [6] = assay: Antibacterial activity against carbapenemase/Klebsiella pneumoniae CECT-997 by broth microdilution method; format: functional
Enterobacter cloacae [7] = assay: Antibacterial activity against colistin-resistant Enterobacter cloacae 297 assessed as inhibition of growth at 50 uM after 18 hrs; format: functional, organism-based
Enterobacter cloacae [8] = assay: Antibacterial activity against colistin-resistant Enterobacter cloacae 297 by broth microdilution method; format: functional
Klebsiella pneumoniae [9] = assay: Antibacterial activity against colistin-susceptible OXA-48/CTX-M-15/carbapenemase-producing Klebsiella pneumoniae 28 assessed as inhibition of growth at 50 uM after 18 hrs; format: functional, organism-based
Enterobacter cloacae [10] = assay: Antibacterial activity against colistin-resistant Enterobacter cloacae 272 assessed as inhibition of growth at 50 uM after 18 hrs; format: functional, organism-based
Enterobacter cloacae [11] = assay: Antibacterial activity against colistin-resistant Enterobacter cloacae 280 assessed as inhibition of growth at 50 uM after 18 hrs; format: functional, organism-based
Klebsiella pneumoniae [12] = assay: Synergistic bactericidal activity against OXA-48/CTX-M-15/carbapenemase-producing Klebsiella pneumoniae 28 assessed as reduction in bacterial count at MIC measured after 8 hrs in presence of colistin by time kill assay; format: functional, organism-based
Klebsiella pneumoniae [13] = assay: Antibacterial activity against colistin-susceptible NDM-1/carbapenemase-producing Klebsiella pneumoniae assessed as inhibition of growth at 50 uM after 18 hrs; format: functional, organism-based
Klebsiella aerogenes [14] = assay: Antibacterial activity against colistin-resistant Enterobacter aerogenes 53 assessed as inhibition of growth at 50 uM after 18 hrs; format: functional, organism-based
Enterobacter cloacae [15] = assay: Antibacterial activity against colistin-resistant Enterobacter cloacae 32 assessed as inhibition of growth at 50 uM after 18 hrs; format: functional, organism-based
Escherichia coli [16] = assay: Bactericidal activity against colistin-susceptible NDM-1/KPC-producing Escherichia coli assessed as reduction in bacterial count at MIC measured after 2 hrs in presence of colistin by time kill assay; format: functional, organism-based
Klebsiella pneumoniae [17] = assay: Antibacterial activity against Klebsiella pneumoniae CECT-997 assessed as inhibition of growth at 50 uM after 18 hrs; format: functional, organism-based
Escherichia coli [18] = assay: Synergistic antibacterial activity against colistin-susceptible NDM1/KPC-producing Escherichia coli in presence of colistin by checkerboard assay; format: functional
Escherichia coli [19] = assay: Bactericidal activity against colistin-susceptible NDM-1/KPC-producing Escherichia coli assessed as reduction in bacterial count at MIC measured after 2 hrs by time kill assay; format: functional, organism-based
Escherichia coli [20] = assay: Antibacterial activity against colistin-susceptible NDM1/KPC-producing Escherichia coli assessed as inhibition of growth at 50 uM after 18 hrs; format: functional, organism-based
Enterobacter cloacae [21] = assay: Antibacterial activity against colistin-resistant Enterobacter cloacae 263 assessed as inhibition of growth at 50 uM after 18 hrs; format: functional, organism-based
Enterobacter cloacae [22] = assay: Antibacterial activity against colistin-resistant Enterobacter cloacae 190 assessed as inhibition of growth at 50 uM after 18 hrs; format: functional, organism-based
Klebsiella pneumoniae [23] = assay: Antibacterial activity against colistin-resistant VIM1/DHAI/carbapenemase-producing Klebsiella pneumoniae 21 assessed as inhibition of growth at 50 uM after 18 hrs; format: functional, organism-based
Klebsiella aerogenes [24] = assay: Antibacterial activity against colistin-resistant Enterobacter aerogenes 3 assessed as inhibition of growth at 50 uM after 18 hrs; format: functional, organism-based
Klebsiella pneumoniae [25] = assay: Antibacterial activity against colistin-susceptible OXA-48/CTX-M-15/carbapenemase-producing Klebsiella pneumoniae 28 by broth microdilution method; format: functional
Enterobacter cloacae [26] = assay: Antibacterial activity against colistin-resistant Enterobacter cloacae 142 assessed as inhibition of growth at 50 uM after 18 hrs; format: functional, organism-based
Escherichia coli [27] = assay: Antibacterial activity against colistin-susceptible NDM1/KPC-producing Escherichia coli by broth microdilution method; format: functional
Klebsiella pneumoniae [28] = assay: Antibacterial activity against colistin-susceptible VIM1/carbapenemase-producing Klebsiella pneumoniae 07 assessed as inhibition of growth at 50 uM after 18 hrs; format: functional, organism-based

NCCCCOc1ccc(Cl)cc1C(=O)Nc1ccc([N+](=O)[O-])cc1Cl
MIC (Klebsiella pneumoniae [1]): > 15 µg/mL
growth inhibition (GI) (Klebsiella pneumoniae [2]): inactive
MIC (Enterobacter cloacae [3]): > 15 µg/mL
Activity (Klebsiella pneumoniae [4]): Active
fractional inhibitory concentration index (FICI) (Klebsiella pneumoniae [5]): 0.5
MIC (Klebsiella pneumoniae [6]): 15 µg/mL (≈ 37.7 µM)
growth inhibition (GI) (Enterobacter cloacae [7]): Active
MIC (Enterobacter cloacae [8]): > 15 µg/mL
growth inhibition (GI) (Klebsiella pneumoniae [9]): Active
growth inhibition (GI) (Enterobacter cloacae [10]): inactive
growth inhibition (GI) (Enterobacter cloacae [11]): Active
Activity (Klebsiella pneumoniae [12]): Active
growth inhibition (GI) (Klebsiella pneumoniae [13]): Active
growth inhibition (GI) (Klebsiella aerogenes [14]): inactive
growth inhibition (GI) (Enterobacter cloacae [15]): inactive
Activity (Escherichia coli [16]): Active
growth inhibition (GI) (Klebsiella pneumoniae [17]): Active
fractional inhibitory concentration index (FICI) (Escherichia coli [18]): 0.25
Activity (Escherichia coli [19]): Active
growth inhibition (GI) (Escherichia coli [20]): Active
growth inhibition (GI) (Enterobacter cloacae [21]): inactive
growth inhibition (GI) (Enterobacter cloacae [22]): inactive
growth inhibition (GI) (Klebsiella pneumoniae [23]): inactive
growth inhibition (GI) (Klebsiella aerogenes [24]): inactive
MIC (Klebsiella pneumoniae [25]): 15 µg/mL (≈ 37.7 µM)
growth inhibition (GI) (Enterobacter cloacae [26]): inactive
MIC (Escherichia coli [27]): 15 µg/mL (≈ 37.7 µM)
growth inhibition (GI) (Klebsiella pneumoniae [28]): inactive
